Laboratory results published in patent US20120208750A1, “USE OF PROTEIN KINASE C DELTA (PKCD) INHIBITORS TO TREAT DIABETES, OBESITY, AND HEPATIC STEATOSIS” (JOSLIN DIABETES CENTER, INC., priority 2009, published 2012).

Legend:
Format in all cases: in vivo, mouse
[1] = system: PKCd; assay: PKCd mRNA expression in liver of leptin and/or insulin treated ob/ob mice (qPCR); settings: short-term infusion (osmotic pump 4 days; insulin pellets s.c.), FIG. 2C
Description: (§1) Expression of PKCd mRNA and protein was assayed in livers mice of various genotypes and under various conditions of diet. For all mRNA studies samples were prepared using RNeasy extraction kit according to the manufacturer protocol (QIAGEN), mRNA was measured by quantitative real-time PCR (qPRC), and results were normalized to TBP. For western blot analysis, 40-50 ug of each extract was loaded per lane. Each lane represents an individual animal. On a normal chow diet at 24 weeks of age, B6 mice have ˜60% higher levels of PKCd mRNA in liver than 129 mice (1.11±0.11 vs. 0.71±0.04, p<0.02) (FIG. 1A). […] These differences in PKCd messenger expression lead to similar differences in expression at the protein level when assessed by Western blot analysis of liver extracts (FIG. 1B). This difference in PKCd expression between B6 and 129 mice was also observed at 6 weeks of age (FIG. 1C), when 129 mice actually weigh slightly more than the B6 (22.1±0.5 vs. 19.8±0.3 g, p<0.001) and have identical glucose and insulin levels.
Although the difference in PKCd expression can be observed between B6 and 129 mice prior to the onset of obesity, obesity and insulin resistance also regulate PKCd. […]

[2] = system: PKCd; assay: PKCd mRNA expression in streptozotocin diabetic mice and insulin- or phlorizin-rescued mice (qPCR); settings: STZ diabetic mice; rescue with s.c. insulin pellets or phlorizin 0.4 g/kg s.c. twice daily 10 days, FIG. 2F-G
Description: as §1
Streptozotocin treatment was performed as follows. Mice at 6 weeks of age received either daily i.p. injections of sodium citrate (pH 4.3) for controls or STZ (Sigma) resuspended in sodium citrate, 100 μg per g of body weight for three consecutive days. When these mice achieved fed glucose levels of >400 mg/dl for three consecutive days, they were separated into two equal groups. One group was not treated, while the other were treated with s.c. insulin pellets (LinShin, Toronto, ON, Canada), to obtain fed glucose levels of <200 mg/dl for at least three consecutive days. For phlorizin treatment of diabetic mice, male 8-week-old C57B1/6 mice were treated with a single intraperitoneal injection (200 μg/g body weight) of STZ (Sigma). PHZ (Sigma) was dissolved in a solution containing 10% ethanol, 15% DMSO, and 75% saline and was injected subcutaneously at a dose of 0.4 g/kg twice daily for 10 days from 8 days after the STZ injection. Control mice were injected with the same volume of vehicle.

[3] = system: PKCd; assay: Western blot of liver protein expression in tunicamycin-treated mice (ER stress): PKCd; settings: 1 μg/g i.p., 2, 4, 6 and 8 hours post-injection, FIG. 2E
Description: as §1
To induce an inflammation in vivo, mice were injected intraperitoneally with 100 μg LPS (Escherichia coli 55:B5; Sigma) or sterile saline as control. Mice were sacrificed 18 hours post-injection. […]

[4] = system: Bip; assay: Western blot of liver protein expression in tunicamycin-treated mice (ER stress): Bip; settings: 1 μg/g i.p., 2, 4, 6 and 8 hours post-injection, FIG. 2E

Row | Molecule | reversal of increased expression of PKCd in liver [1] | differences in PKCd expression vs control [2] | PKCd protein expression in liver during onset of ER stress [3] | ER stress chaperone protein Bip expression in liver [4]
1 | insulin | not reversed | no differences |  | 
2 | O=C(CCc1ccc(O)cc1)c1c(O)cc(O)cc1O[C@@H]1O[C@H](CO)[C@@H](O)[C@H](O)[C@H]1O [phlorizin] |  | no differences |  | 
3 | tunicamycin |  |  | did not observe any alterations | clearly induced
4 | CN(N=O)C(=O)N[C@H]1C(O)O[C@H](CO)[C@@H](O)[C@@H]1O (mixture of isomers) [STZ, streptozotocin] |  | no differences |  | 
5 | leptin: recombinant mouse leptin delivered by osmotic pump (protein, UniProt P41160 22-167, looked up) Leptin: VPIQKVQDDTKTLIKTIVTRINDISHTQSVSAKQRVTGLDFIPGLHPILSLSKMDQTLAVYQQVLTSLPSQNVLQIANDLENLRDLLHLLAFSKSCSLPQTSGLQKPESLDGVLEASLYSTEVVALSRLQGSLQDILQQLDVSPEC | not reversed |  |  | 
